{
  "source": "ChEMBL document CHEMBL1155237",
  "about": "“Selective inhibitors of the mutant B-Raf pathway: discovery of a potent and orally bioavailable aminoisoquinoline” (J Med Chem, 2009)",
  "key": {"[1]": {"target": "Aurora kinase B (Homo sapiens) (UniProt Q96GD4)", "experiment": "Inhibition of AURKB assessed as enzyme activity at 1 uM relative to untreated control", "set-up": "scale not given: the % may be the effect or the level left"}, "[2]": {"experiment": "Inhibition of FGFR3 G697C mutant assessed as enzyme activity at 1 uM relative to untreated control", "set-up": "scale not given: the % may be the effect or the level left"}, "[3]": {"target": "Serine/threonine-protein kinase DCLK2 (Homo sapiens) (UniProt Q8N568)", "sequence (Q8N568 whole entry)": "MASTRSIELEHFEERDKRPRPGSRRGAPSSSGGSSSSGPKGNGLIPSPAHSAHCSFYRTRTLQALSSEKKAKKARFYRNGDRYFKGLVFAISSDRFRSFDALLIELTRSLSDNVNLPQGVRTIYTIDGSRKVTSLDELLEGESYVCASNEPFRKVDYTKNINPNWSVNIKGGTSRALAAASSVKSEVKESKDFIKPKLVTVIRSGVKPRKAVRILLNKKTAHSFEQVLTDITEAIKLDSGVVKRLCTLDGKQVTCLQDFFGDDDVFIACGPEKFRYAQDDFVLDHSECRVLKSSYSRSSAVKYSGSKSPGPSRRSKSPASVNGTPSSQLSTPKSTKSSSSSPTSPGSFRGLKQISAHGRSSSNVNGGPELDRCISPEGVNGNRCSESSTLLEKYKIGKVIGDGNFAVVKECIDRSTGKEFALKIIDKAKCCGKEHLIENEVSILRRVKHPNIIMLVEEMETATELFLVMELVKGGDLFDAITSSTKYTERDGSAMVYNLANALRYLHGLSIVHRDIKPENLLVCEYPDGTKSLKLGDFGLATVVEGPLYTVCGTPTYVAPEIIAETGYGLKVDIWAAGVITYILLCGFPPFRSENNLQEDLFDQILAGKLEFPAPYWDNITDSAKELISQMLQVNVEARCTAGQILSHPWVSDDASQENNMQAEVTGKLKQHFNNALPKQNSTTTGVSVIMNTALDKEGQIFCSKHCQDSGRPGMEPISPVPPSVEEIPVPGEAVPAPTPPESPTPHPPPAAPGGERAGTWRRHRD", "experiment": "Inhibition of DCAMKL2 assessed as enzyme activity at 1 uM relative to untreated control", "set-up": "scale not given: the % may be the effect or the level left"}, "[4]": {"target": "Serine/threonine-protein kinase RIO2 (Homo sapiens) (UniProt Q9BVS4)", "experiment": "Inhibition of RIOK2 assessed as enzyme activity at 1 uM relative to untreated control", "set-up": "scale not given: the % may be the effect or the level left"}, "[5]": {"target": "AP2-associated protein kinase 1 (Homo sapiens) (UniProt Q2M2I8)", "experiment": "Inhibition of AAK1 assessed as enzyme activity at 1 uM relative to untreated control", "set-up": "scale not given: the % may be the effect or the level left"}, "[6]": {"target": "Dual specificity mitogen-activated protein kinase kinase 4 (Homo sapiens) (UniProt P45985)", "experiment": "Inhibition of MEK4 assessed as enzyme activity at 1 uM relative to untreated control", "set-up": "scale not given: the % may be the effect or the level left"}, "[7]": {"target": "Bone morphogenetic protein receptor type-1B (Homo sapiens) (UniProt O00238)", "experiment": "Inhibition of BMPR1B assessed as enzyme activity at 1 uM relative to untreated control", "set-up": "scale not given: the % may be the effect or the level left"}, "[8]": {"target": "Ribosomal protein S6 kinase alpha-2 (Homo sapiens) (UniProt Q15349)", "experiment": "Inhibition of RPS6KA2 kinase domain 1 assessed as enzyme activity at 1 uM relative to untreated control", "set-up": "scale not given: the % may be the effect or the level left"}, "[9]": {"target": "Cyclin-dependent kinase 19 (Homo sapiens) (UniProt Q9BWU1)", "experiment": "Inhibition of CDK11 assessed as enzyme activity at 1 uM relative to untreated control", "set-up": "scale not given: the % may be the effect or the level left"}, "[10]": {"target": "Bone morphogenetic protein receptor type-1A (Homo sapiens) (UniProt P36894)", "sequence (P36894 whole entry)": "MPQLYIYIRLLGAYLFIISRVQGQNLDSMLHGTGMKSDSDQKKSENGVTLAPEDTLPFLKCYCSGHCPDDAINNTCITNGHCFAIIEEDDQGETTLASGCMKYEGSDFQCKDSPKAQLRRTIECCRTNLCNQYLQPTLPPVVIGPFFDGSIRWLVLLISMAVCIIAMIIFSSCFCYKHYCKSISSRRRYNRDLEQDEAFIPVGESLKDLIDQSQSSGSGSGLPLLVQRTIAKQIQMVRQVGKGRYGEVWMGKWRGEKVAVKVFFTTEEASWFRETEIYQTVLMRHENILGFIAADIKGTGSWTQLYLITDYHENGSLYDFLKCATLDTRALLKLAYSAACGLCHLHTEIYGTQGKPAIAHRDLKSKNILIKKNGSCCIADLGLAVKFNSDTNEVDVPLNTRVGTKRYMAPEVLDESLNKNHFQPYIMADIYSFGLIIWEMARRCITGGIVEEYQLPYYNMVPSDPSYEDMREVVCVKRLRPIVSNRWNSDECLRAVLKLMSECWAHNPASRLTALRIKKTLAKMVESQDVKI", "experiment": "Inhibition of BMPR1A assessed as enzyme activity at 1 uM relative to untreated control", "set-up": "scale not given: the % may be the effect or the level left"}, "[11]": {"target": "Tyrosine-protein kinase Blk (Homo sapiens) (UniProt P51451)", "experiment": "Inhibition of BLK assessed as enzyme activity at 1 uM relative to untreated control", "set-up": "scale not given: the % may be the effect or the level left"}, "[12]": {"target": "Tyrosine-protein kinase ABL1 (Homo sapiens) (UniProt P00519)", "experiment": "Inhibition of ABL1 assessed as enzyme activity at 1 uM relative to untreated control", "set-up": "scale not given: the % may be the effect or the level left"}, "[13]": {"target": "Serine/threonine-protein kinase 17A (Homo sapiens) (UniProt Q9UEE5)", "experiment": "Inhibition of DRAK1 assessed as enzyme activity at 1 uM relative to untreated control", "set-up": "scale not given: the % may be the effect or the level left"}, "[14]": {"target": "Misshapen-like kinase 1 (Homo sapiens) (UniProt Q8N4C8)", "experiment": "Inhibition of MINK assessed as enzyme activity at 1 uM relative to untreated control", "set-up": "scale not given: the % may be the effect or the level left"}, "[15]": {"target": "Inhibitor of nuclear factor kappa-B kinase subunit alpha (Homo sapiens) (UniProt O15111)", "experiment": "Inhibition of IKK-alpha assessed as enzyme activity at 1 uM relative to untreated control", "set-up": "scale not given: the % may be the effect or the level left"}, "[16]": {"target": "Dual specificity protein kinase CLK3 (Homo sapiens) (UniProt P49761)", "experiment": "Inhibition of CLK3 assessed as enzyme activity at 1 uM relative to untreated control", "set-up": "scale not given: the % may be the effect or the level left"}, "[17]": {"target": "Serine/threonine-protein kinase tousled-like 2 (Homo sapiens) (UniProt Q86UE8)", "sequence (Q86UE8 whole entry, looked up)": "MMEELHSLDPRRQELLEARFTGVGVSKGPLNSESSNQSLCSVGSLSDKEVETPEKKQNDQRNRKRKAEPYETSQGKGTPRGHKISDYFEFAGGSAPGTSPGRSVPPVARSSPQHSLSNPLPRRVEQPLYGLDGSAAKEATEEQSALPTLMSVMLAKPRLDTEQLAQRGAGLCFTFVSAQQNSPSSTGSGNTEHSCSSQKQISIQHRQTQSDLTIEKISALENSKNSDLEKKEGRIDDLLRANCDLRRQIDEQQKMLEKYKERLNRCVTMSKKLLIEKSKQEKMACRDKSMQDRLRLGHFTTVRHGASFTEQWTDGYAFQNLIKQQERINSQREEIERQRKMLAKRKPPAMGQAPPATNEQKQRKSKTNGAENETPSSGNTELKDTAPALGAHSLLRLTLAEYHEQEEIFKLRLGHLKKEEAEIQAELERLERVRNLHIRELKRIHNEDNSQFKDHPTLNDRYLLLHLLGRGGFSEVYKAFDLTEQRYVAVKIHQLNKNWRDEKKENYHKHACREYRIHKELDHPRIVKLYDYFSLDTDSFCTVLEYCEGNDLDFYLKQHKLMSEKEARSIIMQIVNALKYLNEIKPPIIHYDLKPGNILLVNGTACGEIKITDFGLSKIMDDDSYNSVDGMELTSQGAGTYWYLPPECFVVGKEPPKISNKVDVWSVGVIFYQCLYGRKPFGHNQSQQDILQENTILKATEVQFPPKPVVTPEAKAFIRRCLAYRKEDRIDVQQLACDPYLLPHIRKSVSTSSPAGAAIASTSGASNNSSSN", "experiment": "Inhibition of TLK2 assessed as enzyme activity at 1 uM relative to untreated control", "set-up": "scale not given: the % may be the effect or the level left"}, "[18]": {"target": "Calcium/calmodulin-dependent protein kinase type II subunit beta (Homo sapiens) (UniProt Q13554)", "experiment": "Inhibition of CAMK2B assessed as enzyme activity at 1 uM relative to untreated control", "set-up": "scale not given: the % may be the effect or the level left"}, "[19]": {"tested_on": "Tyrosine-protein kinase ABL1 (Homo sapiens), P00519 [T315I]", "experiment": "Inhibition of ABL1 T315I mutant assessed as enzyme activity at 1 uM relative to untreated control", "set-up": "scale not given: the % may be the effect or the level left"}, "[20]": {"tested_on": "Epidermal growth factor receptor (Homo sapiens), P00533 [G719C]", "experiment": "Inhibition of EGFR G719C mutant assessed as enzyme activity at 1 uM relative to untreated control", "format": "protein assay", "set-up": "scale not given: the % may be the effect or the level left"}, "[21]": {"target": "Serine/threonine-protein kinase LATS2 (Homo sapiens) (UniProt Q9NRM7)", "experiment": "Inhibition of LATS2 assessed as enzyme activity at 1 uM relative to untreated control", "set-up": "scale not given: the % may be the effect or the level left"}, "[22]": {"tested_on": "Tyrosine-protein kinase ABL1 (Homo sapiens), P00519 [H396P]", "experiment": "Inhibition of ABL1 H396P mutant assessed as enzyme activity at 1 uM relative to untreated control", "set-up": "scale not given: the % may be the effect or the level left"}, "[23]": {"target": "MAP kinase-interacting serine/threonine-protein kinase 1 (Homo sapiens) (UniProt Q9BUB5)", "sequence (Q9BUB5 whole entry, looked up)": "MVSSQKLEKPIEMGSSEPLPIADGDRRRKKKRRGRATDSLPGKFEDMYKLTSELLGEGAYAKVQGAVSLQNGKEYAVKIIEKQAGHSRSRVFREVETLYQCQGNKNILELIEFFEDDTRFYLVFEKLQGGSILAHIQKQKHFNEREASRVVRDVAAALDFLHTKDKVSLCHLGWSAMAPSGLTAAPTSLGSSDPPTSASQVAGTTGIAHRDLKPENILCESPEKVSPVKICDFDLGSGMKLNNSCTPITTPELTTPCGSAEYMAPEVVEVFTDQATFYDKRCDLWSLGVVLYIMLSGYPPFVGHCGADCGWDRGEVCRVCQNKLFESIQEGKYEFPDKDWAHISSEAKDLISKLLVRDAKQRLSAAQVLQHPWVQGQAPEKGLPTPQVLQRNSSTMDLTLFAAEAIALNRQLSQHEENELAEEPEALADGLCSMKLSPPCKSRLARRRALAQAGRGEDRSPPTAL", "experiment": "Inhibition of MKNK1 assessed as enzyme activity at 1 uM relative to untreated control", "set-up": "scale not given: the % may be the effect or the level left"}, "[24]": {"tested_on": "Mast/stem cell growth factor receptor Kit (Homo sapiens), P10721 [V559D,V654A]", "experiment": "Inhibition of KIT V559D,V654A mutant assessed as enzyme activity at 1 uM relative to untreated control", "set-up": "scale not given: the % may be the effect or the level left"}, "[25]": {"target": "Citron Rho-interacting kinase (Homo sapiens) (UniProt O14578)", "experiment": "Inhibition of CIT assessed as enzyme activity at 1 uM relative to untreated control", "set-up": "scale not given: the % may be the effect or the level left"}, "[26]": {"target": "Tyrosine-protein kinase Fer (Homo sapiens) (UniProt P16591)", "sequence (P16591 whole entry, looked up)": "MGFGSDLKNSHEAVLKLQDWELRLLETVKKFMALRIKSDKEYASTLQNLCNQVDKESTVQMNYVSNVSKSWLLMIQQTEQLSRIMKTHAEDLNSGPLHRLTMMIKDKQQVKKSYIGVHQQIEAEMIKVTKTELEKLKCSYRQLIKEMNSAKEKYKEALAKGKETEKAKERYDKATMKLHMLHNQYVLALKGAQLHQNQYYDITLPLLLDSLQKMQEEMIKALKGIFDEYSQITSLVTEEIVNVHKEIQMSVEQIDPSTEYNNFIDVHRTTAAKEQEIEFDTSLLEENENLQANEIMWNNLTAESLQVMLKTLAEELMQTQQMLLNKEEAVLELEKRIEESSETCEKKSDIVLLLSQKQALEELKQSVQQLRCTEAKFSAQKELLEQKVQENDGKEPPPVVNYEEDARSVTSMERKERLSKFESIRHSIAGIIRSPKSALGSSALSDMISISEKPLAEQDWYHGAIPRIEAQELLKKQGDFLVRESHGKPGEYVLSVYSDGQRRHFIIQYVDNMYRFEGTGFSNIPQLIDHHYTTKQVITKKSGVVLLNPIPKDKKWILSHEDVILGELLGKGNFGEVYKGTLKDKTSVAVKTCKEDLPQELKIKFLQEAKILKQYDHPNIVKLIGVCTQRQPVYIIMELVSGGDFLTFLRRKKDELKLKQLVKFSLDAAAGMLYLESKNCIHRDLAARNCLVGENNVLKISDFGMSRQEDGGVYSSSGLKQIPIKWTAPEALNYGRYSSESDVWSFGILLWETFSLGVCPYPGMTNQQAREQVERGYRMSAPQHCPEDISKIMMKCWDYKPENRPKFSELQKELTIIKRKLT", "experiment": "Inhibition of FER assessed as enzyme activity at 1 uM relative to untreated control", "set-up": "scale not given: the % may be the effect or the level left"}, "[27]": {"target": "Serine/threonine-protein kinase Nek1 (Homo sapiens) (UniProt Q96PY6)", "experiment": "Inhibition of NEK1 assessed as enzyme activity at 1 uM relative to untreated control", "set-up": "scale not given: the % may be the effect or the level left"}, "[28]": {"target": "Ephrin type-A receptor 2 (Homo sapiens) (UniProt P29317)", "sequence (P29317 whole entry)": "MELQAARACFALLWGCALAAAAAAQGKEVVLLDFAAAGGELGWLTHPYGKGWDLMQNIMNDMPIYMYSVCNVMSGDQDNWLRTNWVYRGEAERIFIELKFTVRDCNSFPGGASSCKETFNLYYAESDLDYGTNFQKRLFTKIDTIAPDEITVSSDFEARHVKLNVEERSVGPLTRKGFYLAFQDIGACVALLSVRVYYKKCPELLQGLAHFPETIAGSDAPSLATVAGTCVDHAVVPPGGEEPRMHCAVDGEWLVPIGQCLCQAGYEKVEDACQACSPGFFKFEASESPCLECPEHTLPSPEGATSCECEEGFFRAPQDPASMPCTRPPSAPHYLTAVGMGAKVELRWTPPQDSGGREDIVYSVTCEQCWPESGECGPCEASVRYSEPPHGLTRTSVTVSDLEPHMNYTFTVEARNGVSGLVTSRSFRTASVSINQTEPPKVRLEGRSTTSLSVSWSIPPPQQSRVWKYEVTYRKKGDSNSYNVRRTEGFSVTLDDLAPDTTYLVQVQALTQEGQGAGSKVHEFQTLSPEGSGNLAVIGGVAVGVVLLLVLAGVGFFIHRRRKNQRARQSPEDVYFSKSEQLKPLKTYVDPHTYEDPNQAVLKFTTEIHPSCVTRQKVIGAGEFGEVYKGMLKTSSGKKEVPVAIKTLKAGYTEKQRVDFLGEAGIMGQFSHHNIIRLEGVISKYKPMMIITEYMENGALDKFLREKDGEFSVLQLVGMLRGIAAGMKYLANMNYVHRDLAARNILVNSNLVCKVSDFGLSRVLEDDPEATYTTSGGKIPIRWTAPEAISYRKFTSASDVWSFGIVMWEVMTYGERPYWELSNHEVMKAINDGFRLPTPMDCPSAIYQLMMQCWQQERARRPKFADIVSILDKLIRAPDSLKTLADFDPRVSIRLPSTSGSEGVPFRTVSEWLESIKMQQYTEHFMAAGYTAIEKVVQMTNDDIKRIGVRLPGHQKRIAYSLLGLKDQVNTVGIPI", "experiment": "Inhibition of EPHA2 assessed as enzyme activity at 1 uM relative to untreated control", "set-up": "scale not given: the % may be the effect or the level left"}, "[29]": {"target": "Tyrosine-protein kinase TXK (Homo sapiens) (UniProt P42681)", "experiment": "Inhibition of TXK assessed as enzyme activity at 1 uM relative to untreated control", "set-up": "scale not given: the % may be the effect or the level left"}, "[30]": {"target": "Casein kinase I isoform delta (Homo sapiens) (UniProt P48730)", "sequence (P48730 whole entry, looked up, canonical isoform)": "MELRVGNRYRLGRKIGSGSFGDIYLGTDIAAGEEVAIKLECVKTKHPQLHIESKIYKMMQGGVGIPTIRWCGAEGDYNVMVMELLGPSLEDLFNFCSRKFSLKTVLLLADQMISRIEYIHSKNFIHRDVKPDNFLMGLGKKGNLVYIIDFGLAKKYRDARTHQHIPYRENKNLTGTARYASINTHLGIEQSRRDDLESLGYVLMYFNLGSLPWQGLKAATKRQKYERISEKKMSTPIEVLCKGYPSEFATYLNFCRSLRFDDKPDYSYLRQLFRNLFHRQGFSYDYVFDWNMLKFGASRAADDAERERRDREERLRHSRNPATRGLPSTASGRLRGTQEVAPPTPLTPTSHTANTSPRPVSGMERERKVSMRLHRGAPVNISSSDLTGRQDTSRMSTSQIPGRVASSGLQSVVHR", "experiment": "Inhibition of CSNK1D assessed as enzyme activity at 1 uM relative to untreated control", "set-up": "scale not given: the % may be the effect or the level left"}, "[31]": {"target": "Serine/threonine-protein kinase PLK3 (Homo sapiens) (UniProt Q9H4B4)", "experiment": "Inhibition of PLK3 assessed as enzyme activity at 1 uM relative to untreated control", "set-up": "scale not given: the % may be the effect or the level left"}, "[32]": {"target": "Phosphatidylinositol 4,5-bisphosphate 3-kinase catalytic subunit delta isoform (Homo sapiens) (UniProt O00329)", "experiment": "Inhibition of PIK3CD assessed as enzyme activity at 1 uM relative to untreated control", "set-up": "scale not given: the % may be the effect or the level left"}, "[33]": {"target": "RAC-alpha serine/threonine-protein kinase (Homo sapiens) (UniProt P31749)", "experiment": "Inhibition of AKT1 assessed as enzyme activity at 1 uM relative to untreated control", "set-up": "scale not given: the % may be the effect or the level left"}, "[34]": {"target": "Serine/threonine-protein kinase 35 (Homo sapiens) (UniProt Q8TDR2)", "experiment": "Inhibition of STK35 assessed as enzyme activity at 1 uM relative to untreated control", "set-up": "scale not given: the % may be the effect or the level left"}, "[35]": {"experiment": "AUC (0 to 24 hrs) in human A375 SQ2 cells xenografted po dosed CD1 mouse administered once daily for 14 days", "format": "ADME, organism-based, A-375", "set-up": "time < 24 hr, route oral", "conditions": "in vivo"}, "[36]": {"target": "Receptor tyrosine-protein kinase erbB-4 (Homo sapiens) (UniProt Q15303)", "experiment": "Inhibition of ERBB4 assessed as enzyme activity at 1 uM relative to untreated control", "set-up": "scale not given: the % may be the effect or the level left"}, "[37]": {"tested_on": "Tyrosine-protein kinase ABL1 (Homo sapiens), P00519 [F317I]", "experiment": "Inhibition of ABL1 F317I mutant assessed as enzyme activity at 1 uM relative to untreated control", "set-up": "scale not given: the % may be the effect or the level left"}},
  "data": [
    {"smiles": "Cc1ccc2c(Nc3ccc(Cl)cc3)nccc2c1Nc1ncccc1-c1ncnc2[nH]cnc12.Cl.Cl.Cl", "values": [
      {"measurement": "Activity", "setting": "[1]", "value": 85, "unit": "%"},
      {"measurement": "Activity", "setting": "[2]", "value": 100, "unit": "%"},
      {"measurement": "Activity", "setting": "[3]", "value": 100, "unit": "%"},
      {"measurement": "Activity", "setting": "[4]", "value": 100, "unit": "%"},
      {"measurement": "Activity", "setting": "[5]", "value": 92, "unit": "%"},
      {"measurement": "Activity", "setting": "[6]", "value": 93, "unit": "%"},
      {"measurement": "Activity", "setting": "[7]", "value": 96, "unit": "%"},
      {"measurement": "Activity", "setting": "[8]", "value": 100, "unit": "%"},
      {"measurement": "Activity", "setting": "[9]", "value": 100, "unit": "%"},
      {"measurement": "Activity", "setting": "[10]", "value": 100, "unit": "%"},
      {"measurement": "Activity", "setting": "[11]", "value": 75, "unit": "%"},
      {"measurement": "Activity", "setting": "[12]", "value": 51, "unit": "%"},
      {"measurement": "Activity", "setting": "[13]", "value": 100, "unit": "%"},
      {"measurement": "Activity", "setting": "[14]", "value": 80, "unit": "%"},
      {"measurement": "Activity", "setting": "[15]", "value": 100, "unit": "%"},
      {"measurement": "Activity", "setting": "[16]", "value": 94, "unit": "%"},
      {"measurement": "Activity", "setting": "[17]", "value": 100, "unit": "%"},
      {"measurement": "Activity", "setting": "[18]", "value": 100, "unit": "%"},
      {"measurement": "Activity", "setting": "[19]", "value": 72, "unit": "%"},
      {"measurement": "Activity", "setting": "[20]", "value": 92, "unit": "%"},
      {"measurement": "Activity", "setting": "[21]", "value": 85, "unit": "%"},
      {"measurement": "Activity", "setting": "[22]", "value": 84, "unit": "%"},
      {"measurement": "Activity", "setting": "[23]", "value": 100, "unit": "%"},
      {"measurement": "Activity", "setting": "[24]", "value": 100, "unit": "%"},
      {"measurement": "Activity", "setting": "[25]", "value": 64, "unit": "%"},
      {"measurement": "Activity", "setting": "[26]", "value": 78, "unit": "%"},
      {"measurement": "Activity", "setting": "[27]", "value": 100, "unit": "%"},
      {"measurement": "Activity", "setting": "[28]", "value": 2.8, "unit": "%"},
      {"measurement": "Activity", "setting": "[29]", "value": 100, "unit": "%"},
      {"measurement": "Activity", "setting": "[30]", "value": 99, "unit": "%"},
      {"measurement": "Activity", "setting": "[31]", "value": 98, "unit": "%"},
      {"measurement": "Activity", "setting": "[32]", "value": 100, "unit": "%"},
      {"measurement": "Activity", "setting": "[33]", "value": 100, "unit": "%"},
      {"measurement": "Activity", "setting": "[34]", "value": 92, "unit": "%"},
      {"measurement": "AUC at 24 h", "setting": "[35]", "value": 2730, "unit": "ng·h/mL"},
      {"measurement": "Activity", "setting": "[36]", "value": 98, "unit": "%"},
      {"measurement": "Activity", "setting": "[37]", "value": 86, "unit": "%"}
    ]}
  ]
}
